Target: T1, CYP9K1 (Anopheles gambiae, UniProt Q8T633)
T1 sequence (Q8T633 1-531): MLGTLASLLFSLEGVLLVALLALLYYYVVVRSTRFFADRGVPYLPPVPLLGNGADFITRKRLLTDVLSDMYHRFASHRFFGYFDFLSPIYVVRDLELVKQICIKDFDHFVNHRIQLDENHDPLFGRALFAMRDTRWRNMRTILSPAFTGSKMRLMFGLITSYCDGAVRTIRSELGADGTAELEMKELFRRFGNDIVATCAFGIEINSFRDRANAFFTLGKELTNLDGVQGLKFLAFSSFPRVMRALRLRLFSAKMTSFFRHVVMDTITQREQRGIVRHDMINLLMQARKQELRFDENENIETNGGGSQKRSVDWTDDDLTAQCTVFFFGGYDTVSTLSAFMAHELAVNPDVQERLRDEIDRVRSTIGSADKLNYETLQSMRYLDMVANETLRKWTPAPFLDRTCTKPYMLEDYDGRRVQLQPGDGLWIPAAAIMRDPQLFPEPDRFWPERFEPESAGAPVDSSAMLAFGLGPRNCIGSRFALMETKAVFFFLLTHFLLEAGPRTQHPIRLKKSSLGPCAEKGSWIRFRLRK
T1 sequence (Q86QH5 1-679 partner): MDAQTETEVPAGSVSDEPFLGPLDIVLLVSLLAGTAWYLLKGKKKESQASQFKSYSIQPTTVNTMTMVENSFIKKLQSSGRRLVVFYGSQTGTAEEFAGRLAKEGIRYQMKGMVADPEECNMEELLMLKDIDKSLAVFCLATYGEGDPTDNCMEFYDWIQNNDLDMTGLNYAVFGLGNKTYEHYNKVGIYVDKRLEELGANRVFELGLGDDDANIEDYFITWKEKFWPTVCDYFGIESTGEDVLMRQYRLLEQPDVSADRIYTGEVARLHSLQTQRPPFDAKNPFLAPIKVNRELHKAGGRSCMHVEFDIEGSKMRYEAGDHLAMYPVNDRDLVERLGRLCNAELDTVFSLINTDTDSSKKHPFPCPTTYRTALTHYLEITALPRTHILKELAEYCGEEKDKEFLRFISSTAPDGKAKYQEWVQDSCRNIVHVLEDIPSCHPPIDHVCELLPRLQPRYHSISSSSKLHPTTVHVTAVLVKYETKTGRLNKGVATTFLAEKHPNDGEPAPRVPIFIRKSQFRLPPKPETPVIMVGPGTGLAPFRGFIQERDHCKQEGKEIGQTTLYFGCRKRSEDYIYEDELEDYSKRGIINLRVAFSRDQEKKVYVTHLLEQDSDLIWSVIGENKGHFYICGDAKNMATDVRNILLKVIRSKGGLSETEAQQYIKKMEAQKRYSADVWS
T1 sequence (Q86QH4 1-128 partner): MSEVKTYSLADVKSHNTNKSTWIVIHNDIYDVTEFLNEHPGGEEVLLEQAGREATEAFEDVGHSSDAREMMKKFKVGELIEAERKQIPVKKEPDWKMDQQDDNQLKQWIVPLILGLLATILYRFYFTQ
Test: HPLC substrate depletion, Michaelis-Menten fit
Format: biochemical
Conditions: NADPH generating system; AgCPR, AgCytb5; Tris-HCl 0.2 M pH 7.4, 0.25 mM MgCl2, 30 °C; 0.5-150 μM deltamethrin

CC1(C)[C@H](C(=O)O[C@H](C#N)c2cccc(Oc3ccccc3)c2)[C@@H]1C=C(Br)Br [deltamethrin]
Km: 28.2 µM
